In general, IC50 refers to the point on the concentration scale where inhibition reaches its midpoint.

For assay [1], the system named is rats. Kind of assay: Amount of locomotor activity. The class given is in vivo, rat. Conditions: 10 mg/kg i.p.; minutes 0-5. The source says:
For the test, Crl: CD(SD) male rats supplied by Charles River Japan were used (6 weeks old at start of test). For the forced swimming test, the method of the improved type reported by Lucki et al. (Lucki I., “The forced swimming test as a model for core and component behavioral effects of antidepressant drugs”, Behavioural Pharmacology, 1997, 8, p. 523-532; Cryan J. F. et al., “Assessing antidepressant activity in rodents: recent developments and future needs”, TRENDS in Pharmacological Sciences, 2002, 23, p. 238-245) was used. On day 1, each rat was placed in a cylinder filled with water (height 45 cm×diameter 30 cm, water depth 30 cm, water temperature 23° C., water depth set to depth by which back legs and tail of rat will not touch the bottom). The rat was taken out after 15 minutes. At this time, the immobility period (seconds) of minutes 10-15 (5 minutes) was recorded. Based on the results, the rats were assigned to five groups so that there would be no difference among the groups. On day 2, each rat was placed in a cylinder filled with water the same as day 1 and the immobility period (seconds), swimming behavior period (seconds), and climbing behavior period (seconds) of minutes 0-5 (5 minutes) were measured. […]

Assay [2] deals with rats. The assay can be described thus: Forced swimming method (anti-depressive action). It is filed as in vivo, rat. Conditions: 10 mg/kg i.p. The text has this: For the test, Crl: CD(SD) male rats supplied by Charles River Japan were used (6 weeks old at start of test). For the forced swimming test, the method of the improved type reported by Lucki et al. (Lucki I., “The forced swimming test as a model for core and component behavioral effects of antidepressant drugs”, Behavioural Pharmacology, 1997, 8, p. 523-532; Cryan J. F. et al., “Assessing antidepressant activity in rodents: recent developments and future needs”, TRENDS in Pharmacological Sciences, 2002, 23, p. 238-245) was used. On day 1, each rat was placed in a cylinder filled with water (height 45 cm×diameter 30 cm, water depth 30 cm, water temperature 23° C., water depth set to depth by which back legs and tail of rat will not touch the bottom). The rat was taken out after 15 minutes. At this time, the immobility period (seconds) of minutes 10-15 (5 minutes) was recorded. Based on the results, the rats were assigned to five groups so that there would be no difference among the groups. On day 2, each rat was placed in a cylinder filled with water the same as day 1 and the immobility period (seconds), swimming behavior period (seconds), and climbing behavior period (seconds) of minutes 0-5 (5 minutes) were measured. Note that the immobility period was defined as the minimum extent of movement for the rat to hold its head above the water, the swimming behavior as the swimming behavior circling around the inside of the cylinder in the horizontal direction, and the climbing behavior as the climbing behavior moving the forelimbs in the vertical direction along the cylinder walls to try to climb them. The tested substance was intraperitoneally administered 15 minutes after the end of swimming on day 1, and 4 hours and 30 minutes before swimming on day 2. Further, for the amount of locomotor activity, a measuring system (shape 48.8×48.8×30 cm, vertical 8 fractions, horizontal 8 fractions, for total of 64 fractions, Biomedica) set in a blacked out soundproof box was used to record the amount of locomotor activity of the rats at minutes 0-15 (15 minutes). Note that the dosages and timings of administration of the tested substances were set in the same way as the forced swimming test and the substance were intraperitoneally administered 24 hours, 4 hours, and 30 minutes before measurement of the amount of locomotor activity.

Assay [3] concerns Parkinson's disease model rats. Kind of assay: Hyperkinesia of the forelimbs and shortening of rotational behavior duration induced by repeated doses of levodopa. It is filed as in vivo, rat. The text has this:
In rats with unilateral nigrostriatal dopamine nerve destruction generally used as Parkinson's disease animal models, it became clear that by administering levodopa by repeated dosage for about 5 weeks, behavior resembling the symptoms of advanced stage Parkinson's disease appeared. That is, in Parkinson's disease model rats prepared in the same way as in Example 4, along with repeated doses of levodopa, abnormal behavior such as involuntary extending of the forelimb or opening or closing of the hand, up-and-down movement of the wrist, choreiform tremor in the forelimb on the opposite side of microinjection of 6-hydroxydopamine was observed (FIG. 3). This abnormal behavior is reported by Steece-Collier et al. (Steece-Collier K. et al., “Embryonic mesencephalic grafts increase levodopa-induced forelimb hyperkinesia in parkinsonian rats”, Movement Disorders, 2003, 18, p. 1442-1454) as hyperkinesia of the forelimbs.
This appears dependent on the period of repeated doses of levodopa and reportedly is similar to clinical dyskinesia. […] Bibbiani et al. (Bibbiani F. et al., “Serotonin 5-HT1A agonist improves motor complications in rodent and primate parkinsonian models”, Neurology, 2001, 57, p. 1829-1834) report that in Parkinson's disease model rats, along with repeated doses of levodopa, a shortening of the rotational behavior duration is observed and that this phenomenon resembles the wearing off phenomenon in clinical studies.
That is, they treated each group by repeated doses of levodopa and repeated dosage of the tested substance for about 2 weeks (Monday to Friday) and observed the hyperkinesia of the forelimbs and rotational behavior after levodopa administration. Note that the SUN N4057 was subcutaneously administered right before levodopa administration, the sarizotan was orally administered about 20 minutes before levodopa dosage in accordance with above-mentioned known reports (Bibbiani F. et al., Neurology, 2001, 57, p. 1829-1834), and the Example Compound 4 of Japanese Patent Publication No. 2005-298402A was subcutaneously administered about 30 minutes before levodopa dosage in accordance with the above-mentioned Japanese Patent Publication No. 2005-298402A. Further, for the solvent, for SUN N4057 and Example Compound 4 of Japanese Patent Publication No. 2005-298402A, physiological saline was used.
In the same way as Example 4, Parkinson's disease model rats were prepared and the rats treated by repeated doses of levodopa (twice a day, Monday to Friday) for 5 weeks and measured for hyperkinesia of the forelimbs and rotational behavior. Further, based on the results of the hyperkinesia of the forelimbs and rotational behavior duration, the rats were assigned to the groups so as to prevent any significant difference between them, then the effects of the tested substances on these behaviors resembling symptoms of advanced stage Parkinson's disease patients were compared and studied. […] Note that compound Ib (0.3, 1 mg/kg) and compound Ic (0.3, 1 mg/kg) were both intraperitoneally administered right before levodopa administration. For the solvent, physiological saline was used.

For assay [4], the target named is T1, rat serotonin 1A receptors (Rattus norvegicus, UniProt P19327).
T1 construct: Each rat was decapitated and the hippocampus was quickly removed; from tissue; host or cells: hippocampus of male Wistar rats
T1 sequence (P19327 1-422): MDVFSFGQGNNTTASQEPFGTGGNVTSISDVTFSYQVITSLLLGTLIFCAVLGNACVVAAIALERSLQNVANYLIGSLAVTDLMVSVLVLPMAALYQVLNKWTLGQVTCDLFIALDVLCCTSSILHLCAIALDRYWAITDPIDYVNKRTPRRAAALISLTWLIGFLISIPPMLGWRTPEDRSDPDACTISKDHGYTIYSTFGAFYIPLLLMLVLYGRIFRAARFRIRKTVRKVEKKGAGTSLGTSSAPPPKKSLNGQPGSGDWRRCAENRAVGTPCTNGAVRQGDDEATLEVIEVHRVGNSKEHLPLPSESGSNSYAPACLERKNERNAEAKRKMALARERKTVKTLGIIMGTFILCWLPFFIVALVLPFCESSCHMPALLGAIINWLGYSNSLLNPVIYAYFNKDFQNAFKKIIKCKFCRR
Kind of assay: Adenylate cyclase inhibition test via rat serotonin 1A receptors (full agonist-partial agonist judgment test), rat hippocampus membranes. The class given is biochemical. Conditions: for inhibition: read-out: maximum inhibitory reaction of adenylate cyclase activity. As for the experimental part: For the test, Wistar male rats supplied by Shimizu Laboratory Supplies were used (9 to 15 weeks old). Each rat was decapitated and the hippocampus was quickly removed. It was homogenized in 10 volumes of buffer (i.e., 25 mM Tris-HCl, 1 mM EGTA, 5 mM EDTA, 5 mM DTT, 300 mM sucrose, 100 KIU/ml aprotinin, pH 7.4). This was then centrifuged at 500×g, 4° C. for 5 minutes, the supernatant was further centrifuged at 39,000×g, 4° C. for 10 minutes, and the residue was used as the rat hippocampus membrane specimen. The rat hippocampus membrane specimen was diluted by a buffer to 20 to 90 μg/mL of protein, then 50 μL of this cell membrane suspension was added to a 200 μL assay buffer containing each test sample (25 mM Tris-HCl, 100 mM NaCl, 2 mM MgCl2. 0.25 mM ATP, 5 mM phosphocreatine, 10 μg/mL creatine phosphokinase, 0.2 mM IBMX, 10 μM GTP, 10 μM forskolin, pH 7.4) and allowed to react at 30° C. for 5 minutes. 0.2N HCl was added in 250 μL to stop the reaction, then the cAMP produced was assayed by the radioimmunoassay method. […] Note that the adenylate cyclase activity was measured using as an indicator the amount of cAMP produced by the same enzyme. The rate of inhibition by the serotonin 1A receptor agonist was found using the amount of production due to forskolin (10 μM) stimulus as 100%.

Read-outs that look alike come from different tables or passages of the source.

`CNCCCN1c2ccccc2CCc2ccccc21` [desipramine]: the “amount of locomotor activity” value in the assay on rats [1] is “decline”. In the assay on rats [2], the climbing behavior period entry is “significant increase”. For the same compound, in the assay on rats [2] (minutes 0-5 on day 2), the immobility period entry was “significant shortening of the immobility period”.

On to `Cc1ccnc(C2=CCN(CCCCN3C(=O)c4ccccc4OC=C3Cl)CC2)n1.O=C(O)/C=C/C(=O)O` [compound Ic, 3-chloro-4,5-dihydro-4-(4-{4-[(4-methyl)-2-pyrimidinyl]-1,2,3,6-tetrahydropyridin-1-yl}butyl)-1,4-benzoxazepin-5-one fumarate], for which the “hyperkinesia of the forelimbs” value was “significantly inhibited” in assay [3] (0.3 mg/kg i.p. repeated 2 weeks, 30 minutes after levodopa dosage); “significantly inhibited” in assay [3] (1.0 mg/kg i.p. repeated 2 weeks, 30 minutes and 1 hour after levodopa dosage). For the same compound, the rotational behavior duration entry in assay [3] (1.0 mg/kg i.p. repeated 2 weeks) is “significantly prolonged”.

Consider `O=C1c2ccccc2S(=O)(=O)N1CCCCN1CCN(c2ncccn2)CC1` [ipsapirone], for which the IC50 in assay [4] (forskolin (10 μM) stimulated, rat hippocampus membranes, read-out: IC50 of adenylate cyclase inhibition (for the maximum reaction)) came out at 39 nM. Also, the inhibition in assay [4] (forskolin (10 μM) stimulus = 100%, rat hippocampus membranes) was 19%.

As to `Cl.O=C1c2ccccc2OC=C(Cl)N1CCCCN1CC=C(c2ncccn2)CC1` [compound Ib, 3-chloro-4,5-dihydro-4-{4-[4-(2-pyrimidinyl)-1,2,3,6-tetrahydropyridin-1-yl]butyl}-1,4-benzoxazepin-5-one hydrochloride], in assay [3] (0.3, 1 mg/kg i.p. repeated 2 weeks), the rotational behavior duration entry is recorded as “tended to be prolonged”. Besides, the “hyperkinesia of the forelimbs” value in assay [3] (0.3, 1 mg/kg i.p. repeated 2 weeks, 30 minutes and 1 hour after levodopa dosage) is reported as “significantly inhibited”.

In the case of `CCCN(CCC)[C@@H]1CCc2cccc(O)c2C1` [8-OH-DPAT, (R)-(+)-8-hydroxy-2-(di-n-propylamino)tetraline], the inhibition in assay [4] was found to be 32%.
